Target: T1, GtCPES (Guillardia theta, UniProt L1JFC7, M146A)
T1 sequence (L1JFC7 80-253 M146A): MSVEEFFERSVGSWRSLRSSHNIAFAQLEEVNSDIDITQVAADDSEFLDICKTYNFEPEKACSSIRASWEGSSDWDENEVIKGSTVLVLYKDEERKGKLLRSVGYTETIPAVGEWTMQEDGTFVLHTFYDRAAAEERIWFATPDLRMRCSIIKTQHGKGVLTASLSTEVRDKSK
Test: UV-Vis absorbance titration
Format: binding

`C/C=C1/C(=C/c2[nH]c(/C=C3N=C(/C=C4\NC(=O)C(CC)=C4C)C(C)=C\3CCC(=O)O)c(CCC(=O)O)c2C)NC(=O)[C@@H]1C` [3(E)-PCB] was tested, and the Kd was 7 ± 0.4 µM.
